Reference: patent US11945822B2, “Pyrazolo-triazine and/or pyrazolo-pxrimidine derivatives as selective inhibitor of cyclin dependent kinase” (QURIENT CO., LTD., priority 2018, dated 2024)

Biological target: T1, CDK1/Cyclin B (Homo sapiens, UniProt P06493)
T1 construct: purchased Invitrogen PR4768C
Test: Enzymatic assay for CDK1 (FRET based LANCE Ultra kinase assay)
Assay type: biochemical
Details: read-out: CDK1 enzymatic activity (IC50 activity range)
Method in brief: (§1)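 Each CDK complex ([…]) phosphorylated 68 nM ULight-MBP peptide with ATP at Km for 60 min at 23° C., against 8 compound doses (4-fold dilutions). EDTA/Eu-anti-phospho-MBP detection, 60 min, then TR-FRET emission at 615 and 665 nm.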

T1 sequence (P06493 whole entry): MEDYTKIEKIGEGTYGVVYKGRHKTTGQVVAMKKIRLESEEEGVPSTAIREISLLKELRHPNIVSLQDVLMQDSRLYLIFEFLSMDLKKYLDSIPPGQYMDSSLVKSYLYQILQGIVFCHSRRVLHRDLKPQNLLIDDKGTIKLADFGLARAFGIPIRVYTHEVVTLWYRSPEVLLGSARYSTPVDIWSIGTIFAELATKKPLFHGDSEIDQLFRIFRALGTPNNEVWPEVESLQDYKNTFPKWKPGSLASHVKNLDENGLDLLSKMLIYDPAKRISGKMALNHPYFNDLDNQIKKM
T1 sequence (P14635 whole entry partner): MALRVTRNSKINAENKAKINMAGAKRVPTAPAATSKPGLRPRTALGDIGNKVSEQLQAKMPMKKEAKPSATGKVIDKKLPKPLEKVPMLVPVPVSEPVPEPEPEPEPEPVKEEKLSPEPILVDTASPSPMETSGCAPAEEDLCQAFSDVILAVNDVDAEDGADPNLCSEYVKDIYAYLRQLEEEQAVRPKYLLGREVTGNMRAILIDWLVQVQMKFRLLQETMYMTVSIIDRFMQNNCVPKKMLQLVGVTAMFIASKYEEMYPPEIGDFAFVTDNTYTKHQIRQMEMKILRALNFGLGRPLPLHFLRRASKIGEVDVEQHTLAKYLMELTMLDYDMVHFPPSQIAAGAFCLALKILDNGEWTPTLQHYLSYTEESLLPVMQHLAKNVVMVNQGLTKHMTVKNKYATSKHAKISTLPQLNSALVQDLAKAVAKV

| IC50 [nM] | SMILES |
| --- | --- |
| > 1000 | CC(C)c1cnn2c(NCc3ccccc3-c3ccc4ccccc4n3)nc(N[C@H]3CC[C@@H](O)CC3)nc12 [Compound 265] |

Same assay, conditions: read-out: CDK1 enzymatic activity (IC50 range)

| IC50 [nM] | SMILES |
| --- | --- |
| > 1000 | CC(C)c1cnn2c(NCc3ccccc3-c3nccc4c(NC(=O)CCCN(C)C)cccc34)nc(N3CCC(N)CC3)nc12 [Compound 90] |
| 100 to 1000 | CC(C)c1cnn2c(NCc3ccccc3-c3cc4ccccc4[nH]3)nc(N3CCC(N)CC3)nc12 [Compound 102] |

Biological target: T2, CDK2/Cyclin A (Homo sapiens, UniProt P24941)
T2 construct: purchased Invitrogen PV6290
Test: Enzymatic assay for CDK2 (FRET based LANCE Ultra kinase assay)
Assay type: biochemical
Details: read-out: CDK2 enzymatic activity (IC50 activity range)
Method in brief: as §1

| IC50 [nM] | SMILES |
| --- | --- |
| > 1000 | CC(C)c1cnn2c(NCc3ccccc3-c3ccc4ccccc4n3)nc(N[C@H]3CC[C@@H](O)CC3)nc12 [Compound 265] |

Same assay, conditions: read-out: CDK2 enzymatic activity (IC50 range)

| IC50 [nM] | SMILES |
| --- | --- |
| > 1000 | CC(C)c1cnn2c(NCc3ccccc3-c3nccc4c(NC(=O)CCCN(C)C)cccc34)nc(N3CCC(N)CC3)nc12 [Compound 90] |
| 100 to 1000 | CC(C)c1cnn2c(NCc3ccccc3-c3cc4ccccc4[nH]3)nc(N3CCC(N)CC3)nc12 [Compound 102] |

Biological target: T3, CDK5/p25 (Homo sapiens, UniProt Q00535)
T3 construct: purchased Invitrogen PR8543B
Test: Enzymatic assay for CDK5 (FRET based LANCE Ultra kinase assay)
Assay type: biochemical
Details: read-out: CDK5 enzymatic activity (IC50 activity range)
Method in brief: as §1

T3 sequence (Q00535 whole entry): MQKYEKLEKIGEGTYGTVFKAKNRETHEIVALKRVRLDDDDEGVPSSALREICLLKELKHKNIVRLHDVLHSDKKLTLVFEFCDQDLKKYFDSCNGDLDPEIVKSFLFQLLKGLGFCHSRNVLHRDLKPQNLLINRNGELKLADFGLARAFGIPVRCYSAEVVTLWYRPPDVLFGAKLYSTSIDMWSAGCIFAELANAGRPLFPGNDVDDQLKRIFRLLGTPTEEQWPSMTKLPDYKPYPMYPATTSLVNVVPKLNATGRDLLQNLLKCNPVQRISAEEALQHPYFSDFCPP
T3 sequence (Q15078 99-307 partner limits assumed): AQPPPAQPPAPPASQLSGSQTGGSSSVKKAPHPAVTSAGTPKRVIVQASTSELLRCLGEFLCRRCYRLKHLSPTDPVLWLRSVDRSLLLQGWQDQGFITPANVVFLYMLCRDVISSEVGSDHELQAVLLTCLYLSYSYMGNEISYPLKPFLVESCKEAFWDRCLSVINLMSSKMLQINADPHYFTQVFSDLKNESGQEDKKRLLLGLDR

| IC50 [nM] | SMILES |
| --- | --- |
| > 1000 | CC(C)c1cnn2c(NCc3ccccc3-c3ccc4ccccc4n3)nc(N[C@H]3CC[C@@H](O)CC3)nc12 [Compound 265] |

Same assay, conditions: read-out: CDK5 enzymatic activity (IC50 range)

| IC50 [nM] | SMILES |
| --- | --- |
| > 1000 | CC(C)c1cnn2c(NCc3ccccc3-c3nccc4c(NC(=O)CCCN(C)C)cccc34)nc(N3CCC(N)CC3)nc12 [Compound 90] |
| < 100 | CC(C)c1cnn2c(NCc3ccccc3-c3cc4ccccc4[nH]3)nc(N3CCC(N)CC3)nc12 [Compound 102] |

Biological target: T4, CDK7/Cyclin H/MNAT1 (Homo sapiens, UniProt P50613)
T4 construct: purchased Invitrogen PR6749B
Test: Enzymatic assay for CDK7 (FRET based LANCE Ultra kinase assay)
Assay type: biochemical
Details: CDK1/CDK7
Method in brief: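 Inhibition was measured at Km ATP by time-resolved FRET between a Eu anti-phospho antibody and a phosphorylated ULight peptide. The enzyme was the purified CDK7/cyclin complex, and data were curve-fitted.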

T4 sequence (P50613 whole entry): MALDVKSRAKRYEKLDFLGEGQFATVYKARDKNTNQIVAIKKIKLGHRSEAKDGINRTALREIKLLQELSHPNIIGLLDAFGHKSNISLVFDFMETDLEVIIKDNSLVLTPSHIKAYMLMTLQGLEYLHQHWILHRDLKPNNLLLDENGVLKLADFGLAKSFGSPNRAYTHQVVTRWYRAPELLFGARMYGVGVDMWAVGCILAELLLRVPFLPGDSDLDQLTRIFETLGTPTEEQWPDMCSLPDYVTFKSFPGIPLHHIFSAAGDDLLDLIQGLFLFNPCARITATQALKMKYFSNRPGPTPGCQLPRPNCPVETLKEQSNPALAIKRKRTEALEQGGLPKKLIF
T4 sequence (P51946 whole entry partner): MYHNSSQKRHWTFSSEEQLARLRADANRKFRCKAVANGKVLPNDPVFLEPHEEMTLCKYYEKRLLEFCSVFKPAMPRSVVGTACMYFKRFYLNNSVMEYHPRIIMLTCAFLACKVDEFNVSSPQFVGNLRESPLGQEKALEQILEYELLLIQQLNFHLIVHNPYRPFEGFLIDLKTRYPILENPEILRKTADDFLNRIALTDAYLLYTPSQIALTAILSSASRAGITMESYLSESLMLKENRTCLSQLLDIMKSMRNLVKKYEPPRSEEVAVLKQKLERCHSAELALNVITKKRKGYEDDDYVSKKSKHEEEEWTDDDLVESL
T4 sequence (P51948 whole entry partner): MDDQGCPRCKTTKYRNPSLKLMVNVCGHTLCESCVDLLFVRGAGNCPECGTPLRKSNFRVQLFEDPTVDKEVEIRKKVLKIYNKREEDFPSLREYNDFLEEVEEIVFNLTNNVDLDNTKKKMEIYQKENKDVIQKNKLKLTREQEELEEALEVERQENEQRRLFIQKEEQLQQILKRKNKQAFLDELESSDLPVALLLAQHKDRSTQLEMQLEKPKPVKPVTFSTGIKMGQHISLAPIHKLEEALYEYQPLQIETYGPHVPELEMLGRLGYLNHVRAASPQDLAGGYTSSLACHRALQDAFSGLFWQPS

| CDK1/CDK7: Selectivity of CDK7 inhibition over CDK1 inhibition | SMILES |
| --- | --- |
| A (A=greater than 200 fold) | CC(C)c1cnn2c(NCc3ccccc3-c3ccc4ccccc4n3)nc(N[C@H]3CC[C@@H](O)CC3)nc12 [Compound 265] |

Same assay, conditions: CDK2/CDK7

| CDK2/CDK7: Selectivity of CDK7 inhibition over CDK2 inhibition | SMILES |
| --- | --- |
| A (A=greater than 200 fold) | CC(C)c1cnn2c(NCc3ccccc3-c3ccc4ccccc4n3)nc(N[C@H]3CC[C@@H](O)CC3)nc12 [Compound 265] |

Same assay, conditions: CDK5/CDK7

| CDK5/CDK7: Selectivity of CDK7 inhibition over CDK5 inhibition | SMILES |
| --- | --- |
| A (A=greater than 200 fold) | CC(C)c1cnn2c(NCc3ccccc3-c3ccc4ccccc4n3)nc(N[C@H]3CC[C@@H](O)CC3)nc12 [Compound 265] |

Same assay, conditions: CDK7 over CDK1

| SMILES | CDK1/CDK7: Selectivity of CDK7 inhibition over CDK1 inhibition |
| --- | --- |
| CC(C)c1cnn2c(NCc3ccccc3-c3nccc4c(NC(=O)CCCN(C)C)cccc34)nc(N3CCC(N)CC3)nc12 [Compound 90] | A (A=greater than 200 fold) |
| CC(C)c1cnn2c(NCc3ccccc3-c3cc4ccccc4[nH]3)nc(N3CCC(N)CC3)nc12 [Compound 102] | B (B=less than 200 fold, but greater than 20 fold) |

Same assay, conditions: CDK7 over CDK2

| SMILES | CDK2/CDK7: Selectivity of CDK7 inhibition over CDK2 inhibition |
| --- | --- |
| CC(C)c1cnn2c(NCc3ccccc3-c3nccc4c(NC(=O)CCCN(C)C)cccc34)nc(N3CCC(N)CC3)nc12 [Compound 90] | A (A=greater than 200 fold) |
| CC(C)c1cnn2c(NCc3ccccc3-c3cc4ccccc4[nH]3)nc(N3CCC(N)CC3)nc12 [Compound 102] | B (B=less than 200 fold, but greater than 20 fold) |

Same assay, conditions: CDK7 over CDK5

| CDK5/CDK7: Selectivity of CDK7 inhibition over CDK5 inhibition | SMILES |
| --- | --- |
| A (A=greater than 200 fold) | CC(C)c1cnn2c(NCc3ccccc3-c3nccc4c(NC(=O)CCCN(C)C)cccc34)nc(N3CCC(N)CC3)nc12 [Compound 90] |
| C (C=less than 20 fold) | CC(C)c1cnn2c(NCc3ccccc3-c3cc4ccccc4[nH]3)nc(N3CCC(N)CC3)nc12 [Compound 102] |

Same assay, conditions: read-out: CDK7 enzymatic activity (IC50 activity range)

| IC50 [nM] | SMILES |
| --- | --- |
| < 100 | CC(C)c1cnn2c(NCc3ccccc3-c3ccc4ccccc4n3)nc(N[C@H]3CC[C@@H](O)CC3)nc12 [Compound 265] |

Same assay, conditions: read-out: CDK7 enzymatic activity (IC50 range)

| IC50 [nM] | SMILES |
| --- | --- |
| < 100 | CC(C)c1cnn2c(NCc3ccccc3-c3nccc4c(NC(=O)CCCN(C)C)cccc34)nc(N3CCC(N)CC3)nc12 [Compound 90] |
| < 100 | CC(C)c1cnn2c(NCc3ccccc3-c3cc4ccccc4[nH]3)nc(N3CCC(N)CC3)nc12 [Compound 102] |

System: HCT116
Test: Cellular HCT116 viability assay (CellTiter-Glo, 72 hours)
Assay type: cell-based
Details: Homo sapiens, HCT-116
Method in brief: (§2)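 Mycoplasma-tested cells, seeded at densities chosen for each line, received compound or DMSO vehicle (under 0.1% final) for 72 hours. Duplicate cultures were then read for viability by CellTiter-Glo luminescence.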

| IC50 [nM] | SMILES |
| --- | --- |
| 1000 to 10000 | CC(C)c1cnn2c(NCc3ccccc3-c3nccc4c(NC(=O)CCCN(C)C)cccc34)nc(N3CCC(N)CC3)nc12 [Compound 90] |
| < 1000 | CC(C)c1cnn2c(NCc3ccccc3-c3cc4ccccc4[nH]3)nc(N3CCC(N)CC3)nc12 [Compound 102] |

System: H460
Test: Cellular H460 viability assay (CellTiter-Glo, 72 hours)
Assay type: cell-based
Details: Homo sapiens, NCI-H460
Method in brief: as §2

| IC50 [nM] | SMILES |
| --- | --- |
| 1000 to 10000 | CC(C)c1cnn2c(NCc3ccccc3-c3nccc4c(NC(=O)CCCN(C)C)cccc34)nc(N3CCC(N)CC3)nc12 [Compound 90] |
| < 1000 | CC(C)c1cnn2c(NCc3ccccc3-c3cc4ccccc4[nH]3)nc(N3CCC(N)CC3)nc12 [Compound 102] |
| < 1000 | CC(C)c1cnn2c(NCc3ccccc3-c3ccc4ccccc4n3)nc(N[C@H]3CC[C@@H](O)CC3)nc12 [Compound 265] |

System: MM.1S
Test: Cellular MM.1S viability assay (CellTiter-Glo, 72 hours)
Assay type: cell-based
Details: Homo sapiens, MM1.S
Method in brief: (§3)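 Compound exposure lasted 72 h at 37° C, 5% CO2, over 0.0015–10 uM, DMSO kept under 0.1%, with dosing 24 h after seeding. Seeding: A2780 1×10^3, OVCAR-3 5×10^3, MM.1S 1×10^4 cells/well in 10% FBS RPMI-1640. Duplicate CellTiter-Glo luminescence readout.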

| IC50 [nM] | SMILES |
| --- | --- |
| > 10000 | CC(C)c1cnn2c(NCc3ccccc3-c3nccc4c(NC(=O)CCCN(C)C)cccc34)nc(N3CCC(N)CC3)nc12 [Compound 90] |
| ≤ 1000 | CC(C)c1cnn2c(NCc3ccccc3-c3cc4ccccc4[nH]3)nc(N3CCC(N)CC3)nc12 [Compound 102] |

System: MV4-11
Test: Cellular MV4-11 viability assay (CellTiter-Glo, 72 hours)
Assay type: cell-based
Details: Homo sapiens
Method in brief: as §2

| IC50 [nM] | SMILES |
| --- | --- |
| < 1000 | CC(C)c1cnn2c(NCc3ccccc3-c3nccc4c(NC(=O)CCCN(C)C)cccc34)nc(N3CCC(N)CC3)nc12 [Compound 90] |
| < 1000 | CC(C)c1cnn2c(NCc3ccccc3-c3cc4ccccc4[nH]3)nc(N3CCC(N)CC3)nc12 [Compound 102] |
| 1000 to 10000 | CC(C)c1cnn2c(NCc3ccccc3-c3ccc4ccccc4n3)nc(N[C@H]3CC[C@@H](O)CC3)nc12 [Compound 265] |

System: MOLT-4
Test: Cellular MOLT-4 viability assay (CellTiter-Glo, 72 hours)
Assay type: cell-based
Details: Homo sapiens, MOLT4 viability assay
Method in brief: as §2

| IC50 [nM] | SMILES |
| --- | --- |
| > 10000 | CC(C)c1cnn2c(NCc3ccccc3-c3nccc4c(NC(=O)CCCN(C)C)cccc34)nc(N3CCC(N)CC3)nc12 [Compound 90] |

System: RPMI-8226
Test: Cellular RPMI-8226 viability assay (CellTiter-Glo, 72 hours)
Assay type: cell-based
Details: Homo sapiens
Method in brief: as §2

| IC50 [nM] | SMILES |
| --- | --- |
| 1000 to 10000 | CC(C)c1cnn2c(NCc3ccccc3-c3nccc4c(NC(=O)CCCN(C)C)cccc34)nc(N3CCC(N)CC3)nc12 [Compound 90] |
| < 1000 | CC(C)c1cnn2c(NCc3ccccc3-c3cc4ccccc4[nH]3)nc(N3CCC(N)CC3)nc12 [Compound 102] |

System: A2780
Test: Cellular A2780 viability assay (CellTiter-Glo, 72 hours)
Assay type: cell-based
Details: Homo sapiens
Method in brief: as §3

| IC50 [nM] | SMILES |
| --- | --- |
| ≤ 1000 | CC(C)c1cnn2c(NCc3ccccc3-c3cc4ccccc4[nH]3)nc(N3CCC(N)CC3)nc12 [Compound 102] |
| ≤ 1000 | CC(C)c1cnn2c(NCc3ccccc3-c3ccc4ccccc4n3)nc(N[C@H]3CC[C@@H](O)CC3)nc12 [Compound 265] |

System: OVCAR-3
Test: Cellular OVCAR-3 viability assay (CellTiter-Glo, 72 hours)
Assay type: cell-based
Details: Homo sapiens
Text: Human T-cell acute lymphoblastic leukemia cell line, MOLT-4 (ATCC, Cat #CRL-1582), Human multiple myeloma cell line, RPMI-8226 (Invitrogen, Cat #22400-089) and MM.1S (ATCC, Cat #CRL-2974), NSCLC (Non-small cell lung cancer) cell line H460 (ATCC, Cat #HTB-177), Human colon colorectal carcinoma cell line HCT116 (ATCC, Cat #CCL-247), Human acute monocytic leukemia cell line MV4-11 (ATCC, Cat #CRL-9591), OVCAR-3 (ATCC, Cat #HTB-161) and A2780 (ECACC, Cat #93112519) were obtained from ATCC. Cells were grown in RPMI-1640 media (Invitrogen, Cat #22400-089) supplemented with 10% FBS (Invitrogen, Cat #10099141) and 1% penicillin/streptomycin (Invitrogen, Cat #15070063) and cultured at 37° C., 5% CO2 in a humidified chamber. All cell lines were routinely tested for mycoplasma.
The effect of the CDK7 inhibitor to inhibit the growth of target cancer cells was evaluated through the 72 hours time period of viability assay. Briefly, the candidate cell line ware plated in 96 well plate at the following density of cells respectively. 1×10^4 cells/well for MOLT-4, RPMI-8226, MV4-11 and MM.1S, 5×10^3 for H460, HCT116 and OVCAR-3 and IX 10^3 for A2780. After 24 hours, the cells were treated with various concentrations of the compound (ranging from 0.0015 uM to 10 uM). DMSO solvent without compound served as a control and final DMSO concentration less than 0.1%. After 72 hours of incubation at 37° C., 5% CO2 incubator, cells were analyzed for the viability using the CellTiter-Glo Luminescent Cell Viability Assay (Promega, Cat #G7570). All viability assays were performed in duplicate and Luminescence was read using an Envision (Perkin Elmer, USA). Data was analyzed using XLfit software.

| IC50 [nM] | SMILES |
| --- | --- |
| 1000 to 10000 | CC(C)c1cnn2c(NCc3ccccc3-c3ccc4ccccc4n3)nc(N[C@H]3CC[C@@H](O)CC3)nc12 [Compound 265] |
